The target in experiment [1] is T1, HER3 (Homo sapiens, UniProt P21860).
T1 construct: endogenous in cells; host or cells: OVCAR8
The experiment is described as follows: HER3/ERBB3 degradation (western blot, OVCAR8 cells). The experiment is classed as cell-based. Here is the method:
FIG. 10 illustrates a Western blot of Compound 102-related degradation of ERBB3.
In various embodiments, treatment with PROTAC was performed in one of two ways: 1) For experiments involving >16 h exposure to compound, a 1000× stock was added to cells followed by gentle agitation; 2) For shorter treatments, a 2× stock was added to an equal volume of cells to ensure uniform drug exposure. For immortalized cell lines, 2×10^6 cells per treatment condition were collected and washed once with ice cold PBS (IX), followed by lysis in buffer containing 20 mM Tris [pH 8.0], 0.25% sodium deoxycholate, 1% Triton X-100, supplemented with protease (Roche) and phosphatase inhibitors (10 mM NaF, 2 mM Na3VO4, 10 mM β-glycerophosphate, 10 mM Na-pyrophosphate). Lysates were spun at 15,000×g for 10 min at 4° C. and supernatant was quantified for total protein content using the Pierce BCA Protein Assay (Thermo Fisher Scientific). 30 μg of protein was loaded onto 12% SDS-PAGE gels or 4-15% Mini-PROTEAN TGX precast gradient gels (Bio-Rad), transferred onto nitrocellulose membranes, and probed with the specified primary antibodies overnight with rocking at 4° C. in 1×TBS-T containing 5% non-fat milk.
(§1) Either anti-rabbit or anti-mouse HRP-conjugated secondary antibodies (Pierce) were incubated with the membranes for 1 h at room temperature at 1:10,000 dilutions in 5% non-fat milk in IX TBS-T. Imaging was performed using the ECL Prime chemiluminescent western blot detection reagents (Amersham) followed by visualization with the Bio-Rad ChemiDoc imaging instrument. All western blots were subsequently processed and quantified using the accompanying Bio-Rad Image Lab software. Primary antibodies used were: Anti-actin antibody (Cat. #MA 1-744) purchased from ThermoFisher Scientific; anti-BTK (Cat. #8547), anti-pBTK (Y223, Cat. #5082), anti-ITK (Cat. #2380), anti-GAPDH (Cat. #5179), anti-IKZF1 (Cat. #9034), and anti-IKZF3 (Cat. #15103) antibodies purchased from Cell Signaling Technology. All antibodies were used at 1:1,000 dilutions in 5% non-fat milk in 1×TBS-Tween (TBS-T) or Blotto blocker (Thermo Scientific) unless otherwise noted in supplier specifications.
On the technique in general: A western blot detects proteins with antibodies after separation by electrophoresis.

In experiment [2] the target is BTK (Homo sapiens, UniProt Q06187). The experiment in a line: BTK degradation in NAMALWA cells (immunoblot). The experiment is classed as cell-based. Particulars: for ability to degrade BTK: dose escalation; for DC50: concentration needed to degrade 50% of the total pool of BTK; for Max: maximal BTK degradation. Further details: host or cells: NAMALWA. Here is the method: NAMALWA and Jurkat cell lines were purchased from ATCC and cultured according to supplier guidelines at 37° C. […] Wild-type and C481S BTK XLA cell lines were cultured as previously described (39). Written, informed consent was obtained prior to the collection of cells from CLL patients using the IWCLL2008 criteria. Isolation of mononuclear cells from peripheral blood was prepared using density gradient centrifugation. B-cells were then negatively selected ([…] Technologies). […] They were maintained at 37° C. in 5% CO2.
Lysates were spun at 15,000×g for 10 min at 4° C. and supernatant was quantified for total protein content using the Pierce BCA Protein Assay (Thermo Fisher Scientific).
as §1, with “Primary antibodies used were: Anti-actin antibody (Cat. #MA 1-744) purchased from ThermoFisher Scientific; anti-BTK (Cat. #8547), anti-pBTK (Y223, Cat. #5082), anti-ITK (Cat. #2380), anti-GAPDH (Cat. #5179), anti-IKZF1 (Cat. #9034), and anti-IKZF3 (Cat. #15103) antibodies purchased from Cell Signaling Technology.” left out

Structures are written as SMILES. Where two headings read alike, the source gives them in different places. Some results are limits rather than exact numbers.

The record followed here is US11028088B2, “Modulators of BTK proteolysis and methods of use” (Yale University, priority 2018, dated 2021).

Usually DC50 stands for the concentration giving 50% degradation.

T1 sequence (P21860 20-1342): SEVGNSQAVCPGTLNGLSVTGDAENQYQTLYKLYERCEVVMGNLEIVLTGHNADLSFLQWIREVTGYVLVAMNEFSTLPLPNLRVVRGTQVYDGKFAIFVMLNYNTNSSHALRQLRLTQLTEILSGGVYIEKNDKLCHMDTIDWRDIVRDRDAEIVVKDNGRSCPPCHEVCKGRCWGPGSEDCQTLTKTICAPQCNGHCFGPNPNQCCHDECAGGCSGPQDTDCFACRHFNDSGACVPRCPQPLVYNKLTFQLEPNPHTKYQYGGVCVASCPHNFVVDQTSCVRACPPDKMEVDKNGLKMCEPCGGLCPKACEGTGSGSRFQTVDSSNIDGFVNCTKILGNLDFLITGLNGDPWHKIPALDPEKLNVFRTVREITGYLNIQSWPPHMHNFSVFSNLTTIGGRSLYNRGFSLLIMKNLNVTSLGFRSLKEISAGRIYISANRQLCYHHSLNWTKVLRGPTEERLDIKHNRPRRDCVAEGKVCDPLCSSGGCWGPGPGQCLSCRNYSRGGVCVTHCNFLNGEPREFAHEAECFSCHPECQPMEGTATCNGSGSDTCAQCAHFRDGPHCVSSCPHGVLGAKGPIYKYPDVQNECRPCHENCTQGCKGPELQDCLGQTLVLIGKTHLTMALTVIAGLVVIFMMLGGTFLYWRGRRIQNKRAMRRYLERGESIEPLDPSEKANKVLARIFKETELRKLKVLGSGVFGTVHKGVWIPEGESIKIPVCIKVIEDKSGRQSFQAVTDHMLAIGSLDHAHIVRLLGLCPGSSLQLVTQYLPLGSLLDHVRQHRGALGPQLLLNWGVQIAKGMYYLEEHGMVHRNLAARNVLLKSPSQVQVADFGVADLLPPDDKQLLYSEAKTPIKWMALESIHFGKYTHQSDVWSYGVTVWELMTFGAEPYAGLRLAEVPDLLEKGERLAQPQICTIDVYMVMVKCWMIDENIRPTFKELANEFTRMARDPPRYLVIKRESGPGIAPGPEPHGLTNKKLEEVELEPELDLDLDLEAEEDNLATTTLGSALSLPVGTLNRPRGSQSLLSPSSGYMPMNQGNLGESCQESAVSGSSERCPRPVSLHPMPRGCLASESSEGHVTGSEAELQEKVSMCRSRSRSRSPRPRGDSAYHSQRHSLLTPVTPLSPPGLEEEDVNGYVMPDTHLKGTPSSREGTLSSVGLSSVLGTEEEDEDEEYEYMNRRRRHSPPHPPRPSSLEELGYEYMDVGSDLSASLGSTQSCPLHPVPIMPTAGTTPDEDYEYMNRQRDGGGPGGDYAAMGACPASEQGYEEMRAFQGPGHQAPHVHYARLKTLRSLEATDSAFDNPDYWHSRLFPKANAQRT
Chain of BTK (Q06187 whole entry): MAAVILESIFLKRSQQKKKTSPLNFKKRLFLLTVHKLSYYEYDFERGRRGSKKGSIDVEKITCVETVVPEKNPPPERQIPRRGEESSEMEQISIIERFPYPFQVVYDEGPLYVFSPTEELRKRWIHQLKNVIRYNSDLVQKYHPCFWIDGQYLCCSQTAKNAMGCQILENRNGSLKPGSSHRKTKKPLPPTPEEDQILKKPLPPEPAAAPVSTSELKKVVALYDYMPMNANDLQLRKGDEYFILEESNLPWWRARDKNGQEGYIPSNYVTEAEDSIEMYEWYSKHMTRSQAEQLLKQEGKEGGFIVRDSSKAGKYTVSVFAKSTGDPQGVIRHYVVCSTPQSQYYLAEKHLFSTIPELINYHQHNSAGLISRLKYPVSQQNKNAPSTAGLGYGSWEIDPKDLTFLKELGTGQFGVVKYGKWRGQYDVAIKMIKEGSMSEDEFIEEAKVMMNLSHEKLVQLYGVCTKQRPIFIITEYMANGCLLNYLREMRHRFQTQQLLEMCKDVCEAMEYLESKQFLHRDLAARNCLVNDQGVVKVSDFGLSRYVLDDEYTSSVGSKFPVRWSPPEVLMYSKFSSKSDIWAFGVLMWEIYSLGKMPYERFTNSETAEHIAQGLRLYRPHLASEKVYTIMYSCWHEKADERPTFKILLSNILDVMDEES

Regarding `C=CC(=O)Nc1cc(-c2nn(C3CCN(CCCCCCOCCOCCOCC(=O)N[C@H](C(=O)N4C[C@H](O)C[C@H]4C(=O)NCc4ccc(-c5scnc5C)cc4)C(C)(C)C)CC3)c3ncnc(N)c23)ccc1Oc1ccccc1` [Compound 123, (2S,4R)-1-((S)-19-(4-(3-(3-acrylamido-4-phenoxyphenyl)-4-amino-1H-pyrazolo[3,4-d]pyrimidin-1-yl)piperidin-1-yl)-2,2-dimethyl-5-oxo-7,10,13-trioxa-4-azanonadecanecarbonyl)-4-hydroxy-N-(4-(4-methylthiazol-5-yl)benzyl)pyrrolidine-2-carboxamide], the “HER3 Degradation” value in experiment [1] is on record as “No”.

For the molecule `Nc1ncnc2c1c(-c1ccc(Oc3ccccc3)cc1)nn2C1CCN(CCOCCOCC(=O)Nc2cccc3c2C(=O)N(C2CCC(=O)NC2=O)C3=O)CC1` (stereo not drawn) [Compound 101, 2-(2-(2-(4-(4-amino-3-(4-phenoxyphenyl)-1H-pyrazolo[3,4-d]pyrimidin-1-yl)piperidin-1-yl)ethoxy)ethoxy)-N-(2-(2,6-dioxopiperidin-3-yl)-1,3-dioxoisoindolin-4-yl)acetamide], the “HER3 Degradation” value in experiment [1] is given as “No”. In addition, the “ability to degrade BTK” value in experiment [2] (NAMALWA cells, 24 h) was “inability to degrade BTK”. Besides, in experiment [2] (NAMALWA cells), the DC50 entry is “No Degradation”.

Take `Nc1ncnc2c1c(-c1ccc(Oc3ccccc3)cc1)nn2C1CCN(CCCCOCCCCOCC(=O)Nc2cccc3c2C(=O)N(C2CCC(=O)NC2=O)C3=O)CC1` (stereo not drawn) [Compound 106, 2-[4-[4-[4-[4-amino-3-(4-phenoxyphenyl)pyrazolo[3,4-d]pyrimidin-1-yl]-1-piperidyl]butoxy]butoxy]-N-[2-(2,6-dioxo-3-piperidyl)-1,3-dioxo-isoindolin-4-yl]acetamide]: in experiment [1], the “HER3 Degradation” value is “No”. Besides, in experiment [2] (1.0 μM, NAMALWA cells), the “degradation of BTK at 1.0 μM” value was “nearly complete degradation”. Besides, in experiment [2] (NAMALWA cells, read-out: DC50), the DC50 stood at 90.1 nM. The same molecule showed a Max in experiment [2] (at 1.0 μM, NAMALWA cells) of 93%.

Regarding `Nc1ncnc2c1c(-c1ccc(Oc3ccccc3)cc1)nn2C1CCN(CCCCOCCCCOCC(=O)Nc2ccc3c(c2)C(=O)N(C2CCC(=O)NC2=O)C3=O)CC1` (stereo not drawn) [Compound 105, 2-[4-[4-[4-[4-amino-3-(4-phenoxyphenyl)pyrazolo[3,4-d]pyrimidin-1-yl]-1-piperidyl]butoxy]butoxy]-N-[2-(2,6-dioxo-3-piperidyl)-1,3-dioxo-isoindolin-5-yl]acetamide], the “HER3 Degradation” value in experiment [1] is “No”. Also, the 50% degradation concentration (DC50) in experiment [2] (NAMALWA cells, read-out: DC50) worked out at 11.6 nM. Further, in experiment [2] (at 250 nM, NAMALWA cells), the Max was above 99%. The “hook-effect (increase in BTK levels at high PROTAC concentration)” value in experiment [2] (up to 2.5 μM, NAMALWA cells, 24 h) is “(No”.

With `Cc1ncsc1-c1ccc(CNC(=O)[C@@H]2C[C@@H](O)CN2C(=O)[C@@H](NC(=O)CCCCCOCCOCCOCCOCCOCCCCCCN2CCC(n3nc(-c4ccc(Oc5ccccc5)cc4)c4c(N)ncnc43)CC2)C(C)(C)C)cc1` [Compound 120, (2S,4R)-1-((S)-29-(4-(4-amino-3-(4-phenoxyphenyl)-1H-pyrazolo[3,4-d]pyrimidin-1-yl)piperidin-1-yl)-2,2-dimethyl-5-oxo-11,14,17,20,23-pentaoxa-4-azanonacosanecarbonyl)-4-hydroxy-N-(4-(4-methylthiazol-5-yl)benzyl)pyrrolidine-2-carboxamide], the “HER3 Degradation” value in experiment [1] is “No”. In addition, in experiment [2] (NAMALWA cells), the DC50 result is recorded as “No Degradation”.

`C=CC(=O)Nc1cc(-c2nn(C3CCN(CCCCCCOCCOCCOCCOCC(=O)N[C@H](C(=O)N4C[C@H](O)C[C@H]4C(=O)NCc4ccc(-c5scnc5C)cc4)C(C)(C)C)CC3)c3ncnc(N)c23)ccc1Oc1ccccc1` [Compound 125, (2S,4R)-1-((S)-22-(4-(3-(3-acrylamido-4-phenoxyphenyl)-4-amino-1H-pyrazolo[3,4-d]pyrimidin-1-yl)piperidin-1-yl)-2,2-dimethyl-5-oxo-7,10,13,16-tetraoxa-4-azadocosanecarbonyl)-4-hydroxy-N-(4-(4-methylthiazol-5-yl)benzyl)pyrrolidine-2-carboxamide]: in experiment [1], the “HER3 Degradation” value is given as “No”.

Regarding `C=CC(=O)Nc1cc(-c2nn(C3CCN(CCCCCCOCCOCCOCCOCCOCC(=O)N[C@H](C(=O)N4C[C@H](O)C[C@H]4C(=O)NCc4ccc(-c5scnc5C)cc4)C(C)(C)C)CC3)c3ncnc(N)c23)ccc1Oc1ccccc1` [Compound 126, (2S,4R)-1-((S)-25-(4-(3-(3-acrylamido-4-phenoxyphenyl)-4-amino-1H-pyrazolo[3,4-d]pyrimidin-1-yl)piperidin-1-yl)-2,2-dimethyl-5-oxo-7,10,13,16,19-pentaoxa-4-azapentacosanecarbonyl)-4-hydroxy-N-(4-(4-methylthiazol-5-yl)benzyl)pyrrolidine-2-carboxamide], in experiment [1], the “HER3 Degradation” value was “No”.

Take `Nc1ncnc2c1c(-c1ccc(Oc3ccccc3)cc1)nn2C1CCN(CCOCCOCCOc2ccc3c(c2)CN(C2CCC(=O)NC2=O)C3=O)CC1` (stereo not drawn) [Compound 135, 3-(5-(2-(2-(2-(4-(4-amino-3-(4-phenoxyphenyl)-1H-pyrazolo[3,4-d]pyrimidin-1-yl)piperidin-1-yl)ethoxy)ethoxy)ethoxy)-1-oxoisoindolin-2-yl)piperidine-2,6-dione]: in experiment [2] (NAMALWA cells, read-out: DC50), the DC50 is 7 nM. Besides, the Max in experiment [2] (concentration not given) is recorded as above 99%.

`CN1C(=O)CCC(N2C(=O)c3ccc(NC(=O)COCCOCCN4CCC(n5nc(-c6ccc(Oc7ccccc7)cc6)c6c(N)ncnc65)CC4)cc3C2=O)C1=O` (stereo not drawn) [Compound 130, 2-(2-(2-(4-(4-amino-3-(4-phenoxyphenyl)-1H-pyrazolo[3,4-d]pyrimidin-1-yl)piperidin-1-yl)ethoxy)ethoxy)-N-(2-(1-methyl-2,6-dioxopiperidin-3-yl)-1,3-dioxoisoindolin-5-yl)acetamide]: the “ability to degrade BTK” value in experiment [2] (NAMALWA cells, 24 h) is on record as “neither ibrutinib nor Compound 130 were able to induce degradation of BTK”.

Turning to `Nc1ncnc2c1c(-c1ccc(Oc3ccccc3)cc1)nn2C1CCN(CCOCCOCCOc2ccc3c(c2)C(=O)N(C2CCC(=O)NC2=O)C3=O)CC1` (stereo not drawn) [Compound 131, 5-(2-(2-(2-(4-(4-amino-3-(4-phenoxyphenyl)-1H-pyrazolo[3,4-d]pyrimidin-1-yl)piperidin-1-yl)ethoxy)ethoxy)ethoxy)-2-(2,6-dioxopiperidin-3-yl)isoindoline-1,3-dione], the DC50 in experiment [2] (NAMALWA cells, read-out: DC50) came out at 13 nM. In experiment [2] (concentration not given), this molecule registered a Max above 99%.

For `Cc1ncsc1-c1ccc(CNC(=O)[C@@H]2C[C@@H](O)CN2C(=O)[C@H](C(C)C)N2Cc3ccccc3C2=O)c(OCCCCOCCCCN2CCC(n3nc(-c4ccc(Oc5ccccc5)cc4)c4c(N)ncnc43)CC2)c1` [Compound 127, (2S,4R)—N-(2-(4-(4-(4-(4-amino-3-(4-phenoxyphenyl)-1H-pyrazolo[3,4-d]pyrimidin-1-yl)piperidin-1-yl)butoxy)butoxy)-4-(4-methylthiazol-5-yl)benzyl)-4-hydroxy-1-((S)-3-methyl-2-(1-oxoisoindolin-2-yl)butanoyl)pyrrolidine-2-carboxamide], the DC50 in experiment [2] (NAMALWA cells, read-out: DC50) stood at 162 nM. In addition, the Max in experiment [2] (concentration not given) was 50%.

Turning to `C=CC(=O)Nc1cc(-c2nn(C3CCN(CCCCCCOCCCCCOCC(=O)N[C@H](C(=O)N4C[C@H](O)C[C@H]4C(=O)NCc4ccc(-c5scnc5C)cc4)C(C)(C)C)CC3)c3ncnc(N)c23)ccc1Oc1ccccc1` [Compound 124, (2S,4R)-1-((S)-2-(2-(5-(6-(4-(3-(3-acrylamido-4-phenoxyphenyl)-4-amino-1H-pyrazolo[3,4-d]pyrimidin-1-yl)piperidin-1-yl)hexyloxy)pentyloxy)acetamido)-3,3-dimethylbutanoyl)-4-hydroxy-N-(4-(4-methylthiazol-5-yl)benzyl)pyrrolidine-2-carboxamide], the “HER3 Degradation” value in experiment [1] is given as “No”.
